{"source": "paper PMC3953223", "about": "(Biochemistry, 2013)", "key": {"[1]": {"target": "PfENR", "details": "cited from earlier work"}, "[2]": {"target": "T1, TgENR (Toxoplasma gondii, UniProt Q6UCJ9)", "T1 sequence (Q6UCJ9 103-417 limits assumed)": "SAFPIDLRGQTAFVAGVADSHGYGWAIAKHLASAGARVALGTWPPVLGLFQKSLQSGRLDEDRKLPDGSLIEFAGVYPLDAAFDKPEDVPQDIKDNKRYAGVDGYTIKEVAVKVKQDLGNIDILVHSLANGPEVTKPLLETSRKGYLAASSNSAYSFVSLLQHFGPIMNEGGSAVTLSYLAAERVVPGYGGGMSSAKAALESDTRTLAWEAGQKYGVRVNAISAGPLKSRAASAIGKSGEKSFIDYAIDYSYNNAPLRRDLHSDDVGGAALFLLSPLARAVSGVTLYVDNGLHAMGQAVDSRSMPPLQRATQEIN", "assay": "Thermal shift assay, ligand binding to TgENR alone", "details": "read-out: Kd of NAD^+ binding to TgENR; TSA, binary complex"}, "[3]": {"tested_on": "T. gondii tachyzoites (RH-YFP)", "type": "cell-based, Toxoplasma gondii", "details": "72 h"}, "[4]": {"tested_on": "T. gondii parasites", "details": "read-out: IC50, growth of T. gondii parasites; cited from earlier work"}}}
{"smiles": "NC(=O)C1=CN([C@@H]2O[C@H](COP(=O)(O)OP(=O)(O)OC[C@H]3O[C@@H](n4cnc5c(N)ncnc54)[C@H](O)[C@@H]3O)[C@@H](O)[C@H]2O)C=CC1", "note": "[NADH, nicotinamide adenine dinucleotide]", "values": [{"measurement": "Kd", "setting": "[1]; read-out: Kd for NADH, PfENR", "result": 51.6, "unit": "µM"}]}
{"smiles": "NC(=O)c1ccc[n+]([C@@H]2O[C@H](COP(=O)([O-])OP(=O)(O)OC[C@H]3O[C@@H](n4cnc5c(N)ncnc54)[C@H](O)[C@@H]3O)[C@@H](O)[C@H]2O)c1", "note": "[NAD^+]", "values": [{"measurement": "Kd", "setting": "[2]", "result": 6000, "unit": "µM"}]}
{"smiles": "Oc1cc(Cl)ccc1Oc1ccc(Cl)cc1Cl", "note": "[Triclosan, triclosan]", "values": [{"measurement": "forward rate constant of tight binding complex formation", "setting": "[1]; PfENR", "result": 0.055, "unit": "s⁻¹"}, {"measurement": "T. gondii MIC50", "setting": "[3]; RH-YFP tachyzoites in HFF, ± SEM", "result": "2.8 ± 0.2", "unit": "µM"}, {"measurement": "MIC50", "setting": "[3]; Toxoplasma gondii, read-out: T. gondii MIC50", "result": 2.8, "unit": "µM"}, {"measurement": "IC50", "setting": "[4]", "result": "~0.2", "unit": "µM"}]}
